Data published in patent publication US20220289746A1, “PYRROLIDINE DERIVATIVES” (Hoffmann-La Roche Inc., priority 2019, published 2022).

What was measured:
human M4 receptor [1] = molecular target: T1, human M4 receptor (Homo sapiens, UniProt P08173); experiment: cAMP assay for M4 positive allosteric modulators (M4 PAM cAMP assay); assay type: cell-based; design: expressed in transfected cells; host or cells: CHO-K1; details: CHO-K1 cells expressing human M4, forskolin 7.5 μM + acetylcholine EC20 (0.2 nM)
T1 sequence (P08173 1-479): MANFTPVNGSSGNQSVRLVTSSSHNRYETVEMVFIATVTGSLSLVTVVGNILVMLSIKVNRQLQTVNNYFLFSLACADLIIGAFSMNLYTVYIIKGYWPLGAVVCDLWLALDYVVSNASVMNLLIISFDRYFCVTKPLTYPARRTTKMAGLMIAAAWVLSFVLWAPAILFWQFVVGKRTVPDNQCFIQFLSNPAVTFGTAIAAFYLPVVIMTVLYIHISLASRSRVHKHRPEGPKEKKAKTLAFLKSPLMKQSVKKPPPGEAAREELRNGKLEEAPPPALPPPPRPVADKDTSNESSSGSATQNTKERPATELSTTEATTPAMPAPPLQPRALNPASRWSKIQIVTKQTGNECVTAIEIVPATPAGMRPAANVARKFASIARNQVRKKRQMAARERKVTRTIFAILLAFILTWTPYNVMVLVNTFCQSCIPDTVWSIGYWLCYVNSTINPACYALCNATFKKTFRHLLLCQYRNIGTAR
Outline: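 CHO-K1 cells stably expressing untagged human M4 pre-treated 15 min at 37 °C with compound plus IBMX, then stimulated 30 min with 7.5 μM forskolin and EC20 acetylcholine (0.2 nM). cAMP read by TR-FRET; normalised to 2 nM acetylcholine plus forskolin as 100%, sigmoidal fit giving EC50 and % efficacy.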

human M4 receptor [2] = molecular target: T1, human M4 receptor; experiment: Calcium flux assay using fluorescent imaging (M4 PAM FLIPR assay); assay type: cell-based; design: expressed in transfected cells; host or cells: CHO (monoclonal line, clone 2); details: CHO cells expressing human M4+Gqi5, acetylcholine EC20
Outline: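 CHO cells stably expressing human M4 with Gqi5 were loaded with 2 μM Fluo-4-AM for about 90 min at 37 °C, in HBSS/20 mM HEPES pH 7.3/2.5 mM probenecid. For PAM mode, compound was pre-incubated 15 min before an EC20 acetylcholine challenge; calcium read on FDSS 7000. EC50 and efficacy are relative to 3 μM acetylcholine (EC100), four-parameter fit.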

liver cells = experiment: Determination of the in vitro clearance in liver cells; assay type: in vitro ADME; details: for clearance values reduced compared to clearance values of examples P1, P2 and P55: in vitro clearance, relative to reference compounds; for Clearance: in vitro intrinsic clearance, liver cells (hepatocyte cultures), 37° C.
Procedure: Determination of the In Vitro Clearance
Incubations of a test compound at different concentrations were performed in 96 well plates containing liver cells (5% CO2 atmosphere and 37° C.). At defined time points, either cell medium was taken or the whole well was quenched with acetonitrile containing an internal standard. Samples are then cooled and centrifuged before analysis by LC-MS/MS. Different enzyme markers (Cyp3A4 substrates Midazolam, Quinidin, CYP2B6 Buproprion, CYP2D6 Dextromethorphan, CYP2C9 Tolbutamide, FMO substrate Benzydamine, UGT substrate Raloxifene) for assessing the metabolic activity of the hepatocyte cultures were used as quality control.
Log peak area ratios (test compound peak area/internal standard peak area) or concentrations were plotted against incubation time and a linear fit made to the data with emphasis upon the initial rate of compound disappearance. The slope of the fit is then used to calculate the intrinsic clearance:
Additionally, the intrinsic clearance can also be deduced by the measured rates of metabolite formation.

M4 receptor = molecular target: T2, M4 receptor (Mus musculus, UniProt P32211); details: rodent in vivo; effects absent in M4 knockout mice; cited from earlier work
T2 construct: host or cells: living mice (behavioural test)
T2 sequence (P32211 1-479): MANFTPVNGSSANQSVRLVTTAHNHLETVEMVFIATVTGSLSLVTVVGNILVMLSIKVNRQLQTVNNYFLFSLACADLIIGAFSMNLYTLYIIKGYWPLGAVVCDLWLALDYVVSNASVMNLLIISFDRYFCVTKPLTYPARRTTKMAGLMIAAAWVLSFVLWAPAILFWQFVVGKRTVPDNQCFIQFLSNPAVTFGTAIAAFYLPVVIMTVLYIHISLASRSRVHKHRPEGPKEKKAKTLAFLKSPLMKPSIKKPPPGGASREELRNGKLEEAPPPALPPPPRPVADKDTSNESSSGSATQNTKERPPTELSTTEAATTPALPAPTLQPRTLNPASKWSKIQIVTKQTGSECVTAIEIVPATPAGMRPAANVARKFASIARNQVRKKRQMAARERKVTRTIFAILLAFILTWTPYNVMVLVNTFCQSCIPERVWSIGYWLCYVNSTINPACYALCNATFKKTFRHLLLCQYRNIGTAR

muscarinic receptors = details: 345 Alzheimer patients; cited from earlier work

## Cc1nc2c(c(C)c1Cl)CN(C(=O)[C@@H]1CCN(c3cccnc3)C1)C2 [Example 1, (3-chloro-2,4-dimethyl-5,7-dihydropyrrolo[3,4-b]pyridin-6-yl)-[(3R)-1-(3-pyridyl)pyrrolidin-3-yl]methanone]
Human M4 receptor [1]; Table 1
  EC50: 155 nM
Human M4 receptor [2]; Table 1
  EC50: 387 nM
Liver cells
  clearance values reduced compared to clearance values of examples P1, P2 and P55: 50%
  Clearance: 9.3 μl/min/1 * 10^6 cells

## Cc1nc2c(c(C)c1Cl)CN(C(=O)[C@@H]1CCN(c3ccncn3)C1)C2 [Example 2, (3-chloro-2,4-dimethyl-5,7-dihydropyrrolo[3,4-b]pyridin-6-yl)-[(3R)-1-pyrimidin-4-ylpyrrolidin-3-yl]methanone]
Human M4 receptor [1]; Table 1
  EC50: 79 nM
Human M4 receptor [2]; Table 1
  EC50: 61 nM
Liver cells
  clearance values reduced compared to clearance values of examples P1, P2 and P55: 50%
  Clearance: 3.5 μl/min/1 * 10^6 cells

## Cc1cncc(N2CC[C@@H](C(=O)N3Cc4nc(C)c(Cl)c(C)c4C3)C2)n1 [Example 51, (3-chloro-2,4-dimethyl-5,7-dihydropyrrolo[3,4-b]pyridin-6-yl)-[(3R)-1-(6-methylpyrazin-2-yl)pyrrolidin-3-yl]methanone]
Human M4 receptor [1]; Table 1
  EC50: 591 nM
Human M4 receptor [2]; Table 1
  EC50: 363 nM

## Cc1cc(N2CC[C@@H](C(=O)N3Cc4nc(C)c(Cl)c(C)c4C3)C2)cnn1 [Example 52, (3-chloro-2,4-dimethyl-5,7-dihydropyrrolo[3,4-b]pyridin-6-yl)-[(3R)-1-(6-methylpyridazin-4-yl)pyrrolidin-3-yl]methanone]
Human M4 receptor [1]; Table 1
  EC50: 1160 nM
Human M4 receptor [2]; Table 1
  EC50: 527 nM

## COCc1nc2c(c(C)c1Cl)CN(C(=O)[C@@H]1CCN(c3cc(C)ncn3)C1)C2 [Example 53, [3-chloro-2-(methoxymethyl)-4-methyl-5,7-dihydropyrrolo[3,4-b]pyridin-6-yl]-[(3R)-1-(6-methylpyrimidin-4-yl)pyrrolidin-3-yl]methanone]
Human M4 receptor [1]; Table 1
  EC50: 503 nM
Human M4 receptor [2]; Table 1
  EC50: 184 nM

## Cc1nc2c(c(C)c1Cl)CN(C(=O)[C@@H]1CCN(c3cc(C(F)F)ncn3)C1)C2 [Example 54, (3-chloro-2,4-dimethyl-5,7-dihydropyrrolo[3,4-b]pyridin-6-yl)-[(3R)-1-[6-(difluoromethyl)pyrimidin-4-yl]pyrrolidin-3-yl]methanone]
Human M4 receptor [1]; Table 1
  EC50: 444 nM
Human M4 receptor [2]; Table 1
  EC50: 247 nM

## COCc1nc2c(c(C)c1Cl)CN(C(=O)[C@@H]1CCN(c3ccncn3)C1)C2 [Example 55, [3-chloro-2-(methoxymethyl)-4-methyl-5,7-dihydropyrrolo[3,4-b]pyridin-6-yl]-[(3R)-1-pyrimidin-4-ylpyrrolidin-3-yl]methanone]
Human M4 receptor [1]; Table 1
  EC50: 192 nM
Human M4 receptor [2]; Table 1
  EC50: 42 nM
Liver cells
  clearance values reduced compared to clearance values of examples P1, P2 and P55: 50%
  Clearance: 2.1 μl/min/1 * 10^6 cells

## COCc1nc2c(c(C)c1Cl)CN(C(=O)[C@@H]1CCN(c3cccnc3)C1)C2 [Example 56, [3-chloro-2-(methoxymethyl)-4-methyl-5,7-dihydropyrrolo[3,4-b]pyridin-6-yl]-[(3R)-1-(3-pyridyl)pyrrolidin-3-yl]methanone]
Human M4 receptor [1]; Table 1
  EC50: 80 nM
Human M4 receptor [2]; Table 1
  EC50: 486 nM

## COCc1nc2c(c(C)c1Cl)CN(C(=O)[C@@H]1CCN(c3ccnc(C(F)F)c3)C1)C2 [Example 57, [3-chloro-2-(methoxymethyl)-4-methyl-5,7-dihydropyrrolo[3,4-b]pyridin-6-yl]-[(3R)-1-[2-(difluoromethyl)-4-pyridyl]pyrrolidin-3-yl]methanone]
Human M4 receptor [1]; Table 1
  EC50: 283 nM
Human M4 receptor [2]; Table 1
  EC50: 99 nM

## COCc1nc2c(c(C)c1Cl)CN(C(=O)[C@@H]1CCN(c3cncnc3)C1)C2 [Example 58, [3-chloro-2-(methoxymethyl)-4-methyl-5,7-dihydropyrrolo[3,4-b]pyridin-6-yl]-[(3R)-1-pyrimidin-5-ylpyrrolidin-3-yl]methanone]
Human M4 receptor [1]; Table 1
  EC50: 179 nM
Human M4 receptor [2]; Table 1
  EC50: 74 nM

## COCc1nc2c(c(C)c1Cl)CN(C(=O)[C@@H]1CCN(c3ccnnc3)C1)C2 [Example 59, [3-chloro-2-(methoxymethyl)-4-methyl-5,7-dihydropyrrolo[3,4-b]pyridin-6-yl]-[(3R)-1-pyridazin-4-ylpyrrolidin-3-yl]methanone]
Human M4 receptor [1]; Table 1
  EC50: 881 nM
Human M4 receptor [2]; Table 1
  EC50: 209 nM

## Cc1nc2c(c(C)c1Cl)CN(C(=O)CC1CN(c3cccnc3)C1)C2 [Example P1, reference compound]
Human M4 receptor [1]; Table 2
  EC50: 55 nM
Human M4 receptor [2]; Table 2
  EC50: 947 nM
Liver cells
  Clearance: 20 μl/min/1 * 10^6 cells

## Cc1nc2c(c(C)c1Cl)CN(C(=O)CC1CN(c3ccncn3)C1)C2 [Example P2, reference compound]
Human M4 receptor [1]; Table 2
  EC50: 53 nM
Human M4 receptor [2]; Table 2
  EC50: 35 nM
Liver cells
  Clearance: 7.9 μl/min/1 * 10^6 cells

## COCc1nc2c(c(C)c1Cl)CN(C(=O)CC1CN(c3ccncn3)C1)C2 [Example P55, 1-[3-chloro-2-(methoxymethyl)-4-methyl-5,7-dihydropyrrolo[3,4-b]pyridin-6-yl]-2-(1-pyrimidin-4-ylazetidin-3-yl)ethanone, reference compound]
Human M4 receptor [2]; Table 2
  EC50: 50 nM
Liver cells
  Clearance: 5.1 μl/min/1 * 10^6 cells

## Cc1nnc2sc(C(=O)NCc3ccc(S(=O)(=O)C(F)(F)F)cc3)c(N)c2c1C [VU0467154]
M4 receptor
  effect on associative learning impairments induced by MK-801: ameliorated the associative learning impairments

## CCCCCCOc1nsnc1C1=CCCN(C)C1 [Xanomeline]
Muscarinic receptors
  effect on cognition and psychiatric symptoms: improve cognition and psychiatric symptoms
